Data published in patent US20140275105A1, “CRYSTAL OF ANDROGEN RECEPTOR AN[…]” (Astellas Pharma Inc., priority 2011, published 2014).
Where two headings read alike, the source gives them in different places.

What was measured:
Type in all cases: physicochemical
[1] = Hygroscopicity test (VTI SGA-100); conditions: 25° C., 5% to 95% relative humidity
Protocol: Measurement of the hygroscopicity of the crystals of the present invention was performed by using VTI SGA-100 under the conditions of temperature: 25° C., measurement range: 5% to 95% relative humidity, and measurement interval: 5% relative humidity.

[2] = Physical solid stability (powder X-ray diffraction and DSC); conditions: 70° C., plugged up, uncontrolled humidity, two weeks
Protocol: With respect to solid state stability of the crystals of the present invention, physical/chemical stability under temperature and humidity conditions, and chemical stability in a light irradiation state were evaluated. The physical stability was evaluated by the powder X-ray diffraction and the differential scanning calorimetry analysis (DSC) (under the above-described measurement conditions). The chemical stability was evaluated by HPLC (related substance test and optical isomer separating test), and represented by the ratio (%) of generated impurities.
(Solid State Stability, Temperature)
In an Incubator IC-450A (manufactured by AS ONE Corporation) set as 70° C., a sample was plugged up and stored under the uncontrolled humidity environment for two weeks.
(Solid State Stability, Temperature/Humidity)

[3] = Solubility in JP1, JP2, JP2+TC, FaSSIF, FeSSIF (shaking 10 minutes at room temperature, HPLC); conditions: 10 minutes shaking
Protocol: 0.5 mg to 1 mg of a sample was weighed in 10 mL of a centrifuge tube, and respective solutions (see below) were added thereto such that the amount thereof became approximately 150 μg/mL. In order to disperse the sample uniformly, the solution was sonicated in a water bath for a short period of time, followed by shaking at room temperature for 10 minutes using a shaker SA31 (manufactured by Yamato Scientific Co., Ltd.). The solution after being shaken was filtered with a filter, and the concentration of the compound in the filtrate was determined by HPLC. The following solutions were used.
JP1 (first solution of Japanese Pharmacopoeia Disintegration Test): 2.0 g of sodium chloride was dissolved in 7.0 mL of hydrochloric acid and water and the amount thereof was set to 1000 mL (pH: approximately 1.2).
JP2 (second solution of Japanese Pharmacopoeia Disintegration Test): 118 mL of 0.2 mol/L sodium hydroxide test solution and water were added to 250 mL of 0.2 mol/L potassium dihydrogen phosphate test solution and the amount thereof was set to 1000 mL (pH: approximately 6.8).
JP2+bile acid (JP2+TC): sodium taurocholic acid was added to the second solution of Japanese Pharmacopoeia Disintegration Test such that the amount thereof became 15 mmol/L.
FaSSIF (simulated intestinal fluid (fasted state)): 3 mmol/L of sodium taurochloric acid, 0.75 mmol/L of lecithin, 3.9 g of potassium dihydrogen phosphate, and 7.7 g of potassium chloride were added to 1 L of water and the pH thereof was adjusted to approximately 6.5 using sodium hydroxide.
FeSSIF (simulated intestinal fluid (fed state)): 15 mmol/L of sodium taurochloric acid, 3.75 mmol/L of lecithin, 8.65 g of acetic acid, and 15.2 g of potassium chloride were added to 1 L of water and the pH thereof was adjusted to approximately 5.0 using sodium hydroxide.
Device: LC1100 (manufactured by Agilent Technologies)
Mobile phase: A: 0.01 mol/L aqueous ammonium acetate solution, B: 0.01 mol/L ammonium acetate methanol solution
Column: Developsil Combi-RP-5.5 μm (2.1 mm×50 mm)
Column temperature: 40° C.
Detection wavelength: 254 nm

[4] = FaSSIF (simulated intestinal fluid, pH 6.5), FaSSIF (fasted state), pH approximately 6.5, room temperature, read-out: Solubility FaSSIF
[5] = FeSSIF (simulated intestinal fluid, pH 5), FeSSIF (fed state), pH approximately 5.0, room temperature, read-out: Solubility FeSSIF
[6] = JP2+TC (JP2 + bile acid), JP2 + 15 mmol/L sodium taurocholic acid, room temperature, read-out: Solubility JP2 + TC
[7] = pH 1.2, JP1, pH approximately 1.2, room temperature, read-out: Solubility JP1
[8] = pH 6.8, JP2, pH approximately 6.8, room temperature, read-out: Solubility JP2

| SMILES | Hygroscopicity [1] | Physical solid stability, temperature [2] | solubility at 10 minutes [3, 4] [µg/mL] | solubility at 10 minutes [3, 5] [µg/mL] | solubility at 10 minutes [3, 6] [µg/mL] | solubility at 10 minutes [3, 7] [µg/mL] | solubility at 10 minutes [3, 8] [µg/mL] |
| --- | --- | --- | --- | --- | --- | --- | --- |
| Br.C[C@@H]1CN(c2ccc(C#N)c(Cl)c2)[C@@H](C)CN1C(=O)Nc1cnc(C2CC2)nc1 [(2R,5S)-4-(3-chloro-4-cyanophenyl)-N-(2-cyclopropylpyrimidin-5-yl)-2,5-dimethylpiperazine-1-carboxamide hydrobromide] | 0.1% or less | Stable to the temperature | 41 | 94.9 | > 80.6 | 12.3 | 19.8 |
| C[C@@H]1CN(c2ccc(C#N)c(Cl)c2)[C@@H](C)CN1C(=O)Nc1cnc(C2CC2)nc1.Cl [(2R,5S)-4-(3-chloro-4-cyanophenyl)-N-(2-cyclopropylpyrimidin-5-yl)-2,5-dimethylpiperazine-1-carboxamide hydrochloride] | ~1.4% | Stable to the temperature | 39.4 | > 100 | 92.8 | 9.7 | 10.1 |
| CS(=O)(=O)O.C[C@@H]1CN(c2ccc(C#N)c(Cl)c2)[C@@H](C)CN1C(=O)Nc1cnc(C2CC2)nc1 [(2R,5S)-4-(3-chloro-4-cyanophenyl)-N-(2-cyclopropylpyrimidin-5-yl)-2,5-dimethylpiperazine-1-carboxamide methanesulfonate] | ~5% | – | 47.2 | > 100 | > 100 | > 100 | 20.6 |
| C[C@@H]1CN(c2ccc(C#N)c(Cl)c2)[C@@H](C)CN1C(=O)Nc1cnc(C2CC2)nc1.O [(2R,5S)-4-(3-chloro-4-cyanophenyl)-N-(2-cyclopropylpyrimidin-5-yl)-2,5-dimethylpiperazine-1-carboxamide monohydrate] | 0.1% or less | Stable to the temperature | 4.4 | 17.7 | 8.8 | 21.8 | 1.6 |
